Assay results published in US20240182531A1, “KV1.3 Blockers” (priority 2021, published 2024).
Where a SMILES comes first, the peptide text is derived from it. Bridges are numbered along the chain shown (N, C = ends). [ ]: non-standard residue; d: D form. Nle = CCCC[C@H](N)C(=O)O; Abu = CC[C@H](N)C(=O)O

Legend:
[1] = molecular target: T1, human Kv1.2 (Homo sapiens, UniProt P16389); assay: cell-based; conditions: ratio of patch clamp IC50 values
T1 construct: expressed in transfected cells; host or cells: CHO

[2] = molecular target: T2, human Kv1.6 (Homo sapiens, UniProt P17658); assay: cell-based; conditions: ratio of patch clamp IC50 values
T2 construct: expressed in transfected cells; host or cells: CHO

[3] = molecular target: T3, human Kv1.1 (Homo sapiens, UniProt Q09470); assay: cell-based; conditions: ratio of patch clamp IC50 values
T3 construct: expressed in transfected cells; host or cells: CHO

[4] = molecular target: Rat whole blood (Rattus norvegicus, UniProt P15384); format: cell-based; conditions: IL-17A release, thapsigargin, 24 Hr, at least 2 replicates
Rat whole blood, sequence (P15384 whole entry): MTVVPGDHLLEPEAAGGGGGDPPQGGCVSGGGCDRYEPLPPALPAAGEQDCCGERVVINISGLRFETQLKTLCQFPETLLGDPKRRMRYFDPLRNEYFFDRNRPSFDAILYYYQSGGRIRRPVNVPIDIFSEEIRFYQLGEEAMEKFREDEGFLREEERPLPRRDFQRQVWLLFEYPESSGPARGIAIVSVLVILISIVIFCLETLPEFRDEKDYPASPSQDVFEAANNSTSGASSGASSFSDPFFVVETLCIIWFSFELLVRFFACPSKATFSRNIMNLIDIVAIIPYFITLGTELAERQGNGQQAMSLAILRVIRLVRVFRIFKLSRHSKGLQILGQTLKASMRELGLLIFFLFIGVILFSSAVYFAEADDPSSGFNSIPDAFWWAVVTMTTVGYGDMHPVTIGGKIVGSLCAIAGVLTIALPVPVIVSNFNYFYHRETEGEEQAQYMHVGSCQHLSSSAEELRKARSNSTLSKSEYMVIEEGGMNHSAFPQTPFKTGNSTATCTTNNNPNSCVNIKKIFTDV

T2 sequence (P17658 whole entry): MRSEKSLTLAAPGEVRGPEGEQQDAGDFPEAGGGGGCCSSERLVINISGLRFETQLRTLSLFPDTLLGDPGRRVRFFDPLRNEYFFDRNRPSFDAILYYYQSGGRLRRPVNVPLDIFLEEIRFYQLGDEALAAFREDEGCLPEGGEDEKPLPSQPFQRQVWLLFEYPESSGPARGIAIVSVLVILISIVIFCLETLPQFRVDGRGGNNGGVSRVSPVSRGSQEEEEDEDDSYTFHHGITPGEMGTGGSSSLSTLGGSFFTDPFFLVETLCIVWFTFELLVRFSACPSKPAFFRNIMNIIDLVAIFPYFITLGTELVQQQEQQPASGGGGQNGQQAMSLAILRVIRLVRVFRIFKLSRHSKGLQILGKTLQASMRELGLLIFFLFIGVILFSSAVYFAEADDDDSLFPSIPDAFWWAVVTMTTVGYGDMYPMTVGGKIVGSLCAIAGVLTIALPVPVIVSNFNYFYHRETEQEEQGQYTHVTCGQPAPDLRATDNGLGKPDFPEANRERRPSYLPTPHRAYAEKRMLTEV
T3 sequence (Q09470 whole entry): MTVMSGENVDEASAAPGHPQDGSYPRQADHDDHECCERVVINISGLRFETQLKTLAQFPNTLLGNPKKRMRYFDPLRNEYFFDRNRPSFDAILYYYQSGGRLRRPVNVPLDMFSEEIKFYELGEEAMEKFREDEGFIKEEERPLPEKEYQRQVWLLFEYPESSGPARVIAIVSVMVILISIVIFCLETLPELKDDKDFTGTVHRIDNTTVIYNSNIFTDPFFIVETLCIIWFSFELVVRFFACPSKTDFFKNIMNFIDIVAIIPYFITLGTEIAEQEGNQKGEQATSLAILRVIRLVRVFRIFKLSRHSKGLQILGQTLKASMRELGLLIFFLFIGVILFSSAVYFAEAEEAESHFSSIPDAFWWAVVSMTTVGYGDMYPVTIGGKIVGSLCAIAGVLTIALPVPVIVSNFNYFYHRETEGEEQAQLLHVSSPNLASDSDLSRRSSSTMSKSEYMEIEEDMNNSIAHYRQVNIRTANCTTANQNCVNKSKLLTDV
T1 sequence (P16389 whole entry): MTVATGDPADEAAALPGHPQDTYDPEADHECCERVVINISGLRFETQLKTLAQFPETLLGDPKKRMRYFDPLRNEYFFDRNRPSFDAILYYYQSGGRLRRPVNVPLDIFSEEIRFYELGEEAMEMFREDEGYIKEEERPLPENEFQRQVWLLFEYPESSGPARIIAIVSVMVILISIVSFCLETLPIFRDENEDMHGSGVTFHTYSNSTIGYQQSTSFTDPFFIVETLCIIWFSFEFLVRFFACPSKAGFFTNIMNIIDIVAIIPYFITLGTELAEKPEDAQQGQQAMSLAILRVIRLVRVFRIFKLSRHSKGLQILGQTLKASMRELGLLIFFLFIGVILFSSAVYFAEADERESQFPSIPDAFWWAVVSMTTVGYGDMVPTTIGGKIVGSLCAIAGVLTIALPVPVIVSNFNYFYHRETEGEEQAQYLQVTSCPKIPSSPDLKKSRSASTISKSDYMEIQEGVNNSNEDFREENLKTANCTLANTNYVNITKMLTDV

Row | Compound | Selectivity ratio Kv1.2/Kv1.3 [1] | Selectivity ratio Kv1.6/Kv1.3 [2] | Selectivity ratio Kv1.1/Kv1.3 [3] | IC50 [4] [nM]
1 | CC[C@H](C)[C@@H]1NC(=O)[C@H](CO)NC(=O)CNC(=O)[C@H](Cc2ccc(O)cc2)NC(=O)[C@H](C)NC(=O)[C@H](CCCCN)NC(=O)[C@H](CC(C)C)NC(=O)[C@@H]2CSSC[C@@H](C(=O)N[C@@H](Cc3ccc(O)cc3)C(=O)N3CCC[C@H]3C(=O)N[C@@H](CCCNC(=N)N)C(N)=O)NC(=O)[C@H](CCCCN)NC(=O)[C@@H]3CSSC[C@H](NC(=O)[C@H](CCC(=O)O)NC(=O)[C@H](C(C)C)NC(=O)[C@H](CO)NC(=O)[C@H](C)NC(=O)[C@H](CO)NC(=O)[C@@H](NC(=O)[C@H](CCCNC(=N)N)NC(=O)[C@H](CCSC)NC(=O)[C@H](CC(=O)O)NC(=O)[C@H](CCSC)NC(=O)[C@@H](N)CC(N)=O)CSSC[C@H](NC(=O)[C@H](CCCCN)NC(=O)CNC(=O)[C@H](Cc4ccccc4)NC1=O)C(=O)N[C@@H](CCSC)C(=O)N[C@@H](CC(N)=O)C(=O)N[C@@H](CCCCN)C(=O)N[C@@H](CCCCN)C(=O)N3)C(=O)N[C@@H](CCCCN)C(=O)N[C@@H](CCC(N)=O)C(=O)N[C@@H](CCCCN)C(=O)N2 [compound 61] (H-NMDMRCSASVECKQKCLKAYGSIFGKCMNKKCKCYPR-NH2; disulfide 6-27, 12-32, 16-34) | 426 | >8800 | >8800 | –
2 | CC[C@H](C)[C@@H]1NC(=O)[C@H](C)NC(=O)[C@H](Cc2ccc(O)cc2)NC(=O)[C@H](CC(C)C)NC(=O)[C@@H]2CSSC[C@@H](C(=O)N[C@@H](Cc3ccc(O)cc3)C(=O)N3CCC[C@H]3C(=O)N[C@@H](CCCNC(=N)N)C(N)=O)NC(=O)[C@H](CCCCN)NC(=O)[C@@H]3CSSC[C@H](NC(=O)[C@H](CCC(=O)O)NC(=O)[C@H](C(C)C)NC(=O)[C@H](CO)NC(=O)[C@H](C)NC(=O)[C@H](CO)NC(=O)[C@@H](NC(=O)[C@H](CCCNC(=N)N)NC(=O)[C@H](CCSC)NC(=O)[C@H](CC(=O)O)NC(=O)[C@H](CCSC)NC(=O)[C@@H](N)CC(N)=O)CSSC[C@H](NC(=O)[C@H](CCCCN)NC(=O)CNC(=O)[C@H](Cc4ccccc4)NC(=O)[C@H]([C@@H](C)CC)NC(=O)[C@H](CO)NC(=O)CNC1=O)C(=O)N[C@@H](CCSC)C(=O)N[C@@H](CC(N)=O)C(=O)N[C@@H](CCCCN)C(=O)N[C@@H](CCCCN)C(=O)N3)C(=O)N[C@@H](CCCCN)C(=O)N[C@@H](CCC(N)=O)C(=O)N[C@@H](CCCCN)C(=O)N2 [compound 57] (H-NMDMRCSASVECKQKCLYAIGSIFGKCMNKKCKCYPR-NH2; disulfide 6-27, 12-32, 16-34) | 514 | >10300 | >10300 | –
3 | CC[C@H](C)[C@@H]1NC(=O)[C@H](C)NC(=O)[C@H](CCCCN)NC(=O)[C@H](CC(C)C)NC(=O)[C@@H]2CSSC[C@@H](C(=O)N[C@@H](Cc3ccc(O)cc3)C(=O)N3CCC[C@H]3C(=O)N[C@@H](CCCNC(=N)N)C(=O)O)NC(=O)[C@H](CCCCN)NC(=O)[C@@H]3CSSC[C@H](NC(=O)[C@H](CCC(=O)O)NC(=O)[C@H](C(C)C)NC(=O)[C@H](CO)NC(=O)[C@H](C)NC(=O)[C@H](CO)NC(=O)[C@@H](NC(=O)[C@H](CCCNC(=N)N)NC(=O)[C@H](CCSC)NC(=O)[C@H](CC(=O)O)NC(=O)[C@@H](NC(=O)[C@@H](N)CC(N)=O)[C@@H](C)CC)CSSC[C@H](NC(=O)[C@H](CCCCN)NC(=O)CNC(=O)[C@H](Cc4ccccc4)NC(=O)[C@H]([C@@H](C)CC)NC(=O)[C@H](CO)NC(=O)CNC1=O)C(=O)N[C@@H](CCSC)C(=O)N[C@@H](CC(N)=O)C(=O)N[C@@H](CCCCN)C(=O)N[C@@H](CCCCN)C(=O)N3)C(=O)N[C@@H](CCCCN)C(=O)N[C@@H](CCC(N)=O)C(=O)N[C@@H](CCCCN)C(=O)N2 [compound 19] (H-NIDMRCSASVECKQKCLKAIGSIFGKCMNKKCKCYPR-OH; disulfide 6-27, 12-32, 16-34) | 857 | >6800 | >6800 | –
4 | CC[C@H](C)[C@@H]1NC(=O)[C@H](C)NC(=O)[C@H](CCCCN)NC(=O)[C@H](CC(C)C)NC(=O)[C@@H]2CSSC[C@@H](C(=O)N[C@@H](Cc3ccc(O)cc3)C(=O)N3CCC[C@H]3C(=O)N[C@@H](CCCNC(=N)N)C(=O)O)NC(=O)[C@H](CCCCN)NC(=O)[C@@H]3CSSC[C@H](NC(=O)[C@H](CCC(=O)O)NC(=O)[C@H](C(C)C)NC(=O)[C@H](CO)NC(=O)[C@H](C)NC(=O)[C@H](CO)NC(=O)[C@@H](NC(=O)[C@H](CCCNC(=N)N)NC(=O)[C@H](CCSC)NC(=O)[C@H](CC(=O)O)NC(=O)[C@H](CCSC)NC(=O)[C@@H](N)CCC(N)=O)CSSC[C@H](NC(=O)[C@H](CCCCN)NC(=O)CNC(=O)[C@H](Cc4ccccc4)NC(=O)CNC(=O)[C@H](CCCNC(=N)N)NC(=O)CNC1=O)C(=O)N[C@@H](CCSC)C(=O)N[C@@H](CC(N)=O)C(=O)N[C@@H](CCCCN)C(=O)N[C@@H](CCCCN)C(=O)N3)C(=O)N[C@@H](CCCCN)C(=O)N[C@@H](CCC(N)=O)C(=O)N[C@@H](CCCCN)C(=O)N2 [compound 16] (H-QMDMRCSASVECKQKCLKAIGRGFGKCMNKKCKCYPR-OH; disulfide 6-27, 12-32, 16-34) | 65 | 1204 | >2000 | –
5 | CC[C@H](C)[C@@H]1NC(=O)[C@H](C)NC(=O)[C@H](CCCCN)NC(=O)[C@H](CC(C)C)NC(=O)[C@@H]2CSSC[C@@H](C(=O)N[C@@H](Cc3ccc(O)cc3)C(=O)N3CCC[C@H]3C(=O)N[C@@H](CCCNC(=N)N)C(=O)O)NC(=O)[C@H](CCCCN)NC(=O)[C@@H]3CSSC[C@H](NC(=O)[C@H](CCC(=O)O)NC(=O)[C@H](C(C)C)NC(=O)[C@H](CO)NC(=O)[C@H](C)NC(=O)[C@H](CO)NC(=O)[C@@H](NC(=O)[C@H](CCCNC(=N)N)NC(=O)[C@H](CCSC)NC(=O)[C@H](CCC(=O)O)NC(=O)[C@H](CCSC)NC(=O)[C@@H](N)CC(N)=O)CSSC[C@H](NC(=O)[C@H](CCCCN)NC(=O)CNC(=O)[C@H](Cc4ccccc4)NC(=O)[C@H]([C@@H](C)CC)NC(=O)[C@H](CO)NC(=O)CNC1=O)C(=O)N[C@@H](CCSC)C(=O)N[C@@H](CC(N)=O)C(=O)N[C@@H](CCCCN)C(=O)N[C@@H](CCCCN)C(=O)N3)C(=O)N[C@@H](CCCCN)C(=O)N[C@@H](CCC(N)=O)C(=O)N[C@@H](CCCCN)C(=O)N2 [compound 20] (H-NMEMRCSASVECKQKCLKAIGSIFGKCMNKKCKCYPR-OH; disulfide 6-27, 12-32, 16-34) | 2093 | >27600 | >27600 | –
6 | CCCC[C@@H]1NC(=O)[C@@H]2CSSC[C@H](NC(=O)[C@H](CCCNC(=N)N)NC(=O)[C@H](CCCC)NC(=O)[C@H](CC(=O)O)NC(=O)[C@H](CCCC)NC(=O)[C@@H](N)CC(N)=O)C(=O)N[C@@H](CO)C(=O)N[C@@H](C)C(=O)N[C@@H](CO)C(=O)N[C@@H](C(C)C)C(=O)N[C@@H](CCC(=O)O)C(=O)N[C@H]3CSSC[C@H](NC(=O)[C@H](CCCCN)NC(=O)[C@H](CCCCN)NC(=O)[C@H](CC(N)=O)NC1=O)C(=O)N[C@@H](CCCCN)C(=O)N[C@H](C(=O)N[C@@H](Cc1ccc(O)cc1)C(=O)N1CCC[C@H]1C(=O)N[C@@H](CCCNC(=N)N)C(N)=O)CSSC[C@H](NC(=O)[C@H](CCCCN)NC(=O)[C@H](CCC(N)=O)NC(=O)[C@H](CCCCN)NC3=O)C(=O)N[C@@H](CC(C)C)C(=O)N[C@@H](CCCCN)C(=O)N[C@@H](C)C(=O)N[C@@H]([C@@H](C)CC)C(=O)NCC(=O)N[C@@H](CO)C(=O)N[C@@H]([C@@H](C)CC)C(=O)N[C@@H](Cc1ccccc1)C(=O)NCC(=O)N[C@@H](CCCCN)C(=O)N2 [compound 44] (H-N[Nle]D[Nle]RCSASVECKQKCLKAIGSIFGKC[Nle]NKKCKCYPR-NH2; disulfide 6-27, 12-32, 16-34) | 436 | 7073 | >11600 | –
7 | CCCC[C@@H]1NC(=O)[C@@H]2CSSC[C@H](NC(=O)[C@H](CCCNC(=N)N)NC(=O)[C@H](CCCC)NC(=O)[C@H](CC(=O)O)NC(=O)[C@H](CCCC)NC(=O)[C@@H](N)Cc3ccc(O)cc3)C(=O)N[C@@H](CO)C(=O)N[C@@H](C)C(=O)N[C@@H](CO)C(=O)N[C@@H](C(C)C)C(=O)N[C@@H](CCC(=O)O)C(=O)N[C@H]3CSSC[C@H](NC(=O)[C@H](CCCCN)NC(=O)[C@H](CCCCN)NC(=O)[C@H](CC(N)=O)NC1=O)C(=O)N[C@@H](CCCCN)C(=O)N[C@H](C(=O)N[C@@H](Cc1ccc(O)cc1)C(=O)N1CCC[C@H]1C(=O)N[C@@H](CCCNC(=N)N)C(N)=O)CSSC[C@H](NC(=O)[C@H](CCCCN)NC(=O)[C@H](CCC(N)=O)NC(=O)[C@H](CCCCN)NC3=O)C(=O)N[C@@H](CC(C)C)C(=O)N[C@@H](CCCCN)C(=O)N[C@@H](C)C(=O)N[C@@H]([C@@H](C)CC)C(=O)NCC(=O)N[C@@H](CO)C(=O)N[C@@H]([C@@H](C)CC)C(=O)N[C@@H](Cc1ccccc1)C(=O)NCC(=O)N[C@@H](CCCCN)C(=O)N2 [compound 65] (H-Y[Nle]D[Nle]RCSASVECKQKCLKAIGSIFGKC[Nle]NKKCKCYPR-NH2; disulfide 6-27, 12-32, 16-34) | – | – | – | 1.1
8 | H-N[Nle]D[Nle]RCSASVECQQKCLKAIGSIFGKC[Nle]NKKCKCYPR-NH2 (cysteine pairing not given here) [compound 48] | – | – | – | 1.1
9 | H-S[Nle]D[Nle]RCSA[Abu]VECKQKCLKAIGSIFGKCMNKKCKCYPR-NH2 (cysteine pairing not given here) [compound 68] | – | – | – | 0.93
10 | H-S[Nle]D[Nle]RCSASVECKQKCLAAIGCIFGKC[Nle]NKKCKCYPC-NH2 (cysteine pairing not given here) [compound 85] | – | – | – | 0.73
11 | H-S[Nle]D[Nle]RCSASVECKQKCLKAIGSIFG[homo-Lys]CMNKKCKCYPR-NH2 [compound 69] | – | – | – | 2.7
